Target: T1, porcine pancreatic lipase (Sus scrofa, UniProt P00591)
T1 construct: purchased Sigma, St. Louis, MO
T1 sequence (P00591 1-450): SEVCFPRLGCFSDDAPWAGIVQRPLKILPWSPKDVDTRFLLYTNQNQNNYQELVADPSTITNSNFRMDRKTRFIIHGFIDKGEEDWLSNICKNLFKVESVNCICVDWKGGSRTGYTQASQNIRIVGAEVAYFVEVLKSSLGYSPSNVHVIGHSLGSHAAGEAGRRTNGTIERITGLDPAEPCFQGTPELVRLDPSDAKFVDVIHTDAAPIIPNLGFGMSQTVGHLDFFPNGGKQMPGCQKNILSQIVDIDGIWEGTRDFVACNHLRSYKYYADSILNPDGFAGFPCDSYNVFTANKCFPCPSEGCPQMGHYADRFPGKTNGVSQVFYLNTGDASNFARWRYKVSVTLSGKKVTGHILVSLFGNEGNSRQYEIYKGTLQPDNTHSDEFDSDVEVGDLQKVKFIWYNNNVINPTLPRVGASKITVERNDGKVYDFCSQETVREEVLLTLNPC
Test: Pancreatic lipase inhibition assay (p-NPB hydrolysis, OD 405 nm)
Type: biochemical
Settings: substrate p-NPB, 37 °C, mean ± S.D. of quadruplicate experiments, read-out: IC50, pancreatic lipase inhibitory activity (concentration that caused a 50% reduction in enzyme activity)
Experimental: The ability of the compounds to inhibit porcine pancreatic lipase was evaluated using previously reported methods with a minor modification. Briefly, an enzyme buffer was prepared by the addition of 30 μL (10 units) of a solution of porcine pancreatic lipase (Sigma, St. Louis, MO) in10 mM MOPS (morpholinepropanesulphonic acid), and 1 mM EDTA, pH 6.8 to 850 μL of Tris buffer (100 mM Tris-HC1 and 5 mM CaCl2, pH 7.0). […] Pancreatic lipase activity was determined by measuring the hydrolysis of p-NPB to p-nitrophenol at 405 nm using an ELISA reader (Tecan, Infinite F200, Austria). Inhibition of lipase activity was expressed as the percentage decrease in the OD when porcine pancreatic lipase was incubated with the test compounds.

| SMILES | IC50 |
| --- | --- |
| COC(=O)[C@]1(O)C[C@@H](O)[C@@H](O)[C@H](OC(=O)/C=C/c2ccc(O)c(O)c2)C1 [Compound 8, methyl chlorogenate] | 33.6 ± 2 µM |
| CC1OC(OC2C(c3c(O)cc4oc(-c5ccc(O)c(O)c5)cc(=O)c4c3O)OC(CO)C(O)C2O)C(O)C(O)C1O [Compound 5, isoorientin 2-O-α-L-rhamnoside] | 18.5 ± 2.6 µM |
| O=c1cc(-c2ccc(O)c(O)c2)oc2cc(O)c([C@@H]3O[C@H](CO)[C@@H](O)[C@H](O)[C@H]3O)c(O)c12 [Compound 3, isoorientin] | 44.6 ± 1.3 µM |
| O=C(/C=C/c1ccc(O)c(O)c1)O[C@@H]1C[C@](O)(C(=O)O)C[C@@H](O)[C@H]1O [Compound 7, chlorogenic acid] | > 200 µM |
| O=c1cc(-c2ccc(O)c(O)c2)oc2cc(O)cc(O)c12 [Compound 6, luteolin] | > 200 µM |
| O=C(O)/C=C/c1ccc(O)c(O)c1 [Compound 9, caffeic acid] | > 200 µM |
| C[C@H]1O[C@@H](c2c(O)cc3oc(-c4ccc(O)c(O)c4)cc(=O)c3c2O)C[C@H](O)[C@H]1O [Compound 1, luteolin 6-C-β-D-boivinopyranoside] | 50.5 ± 3.9 µM |
| O=c1cc(-c2ccc(O)c(O)c2)oc2c([C@@H]3O[C@H](CO)[C@@H](O)[C@H](O)[C@H]3O)c(O)cc(O)c12 [Compound 2, orientin] | 31.6 ± 2.7 µM |
